The values that follow come from publication PMC9406419, “OATD-02 Validates the Benefits of Pharmacological Inhibition of Arginase 1 and 2 in Cancer” (Cancers, 2022).

Test [1] has as its system Renca tumours. Put plainly: Syngeneic Renca renal adenocarcinoma model with plasma L-arginine and tumour flow cytometry. The test is classed as in vivo, mouse. The procedure: CT26 and K562 in vivo experiments were conducted at Molecure SA. All experimental procedures were approved by the 1st Local Ethics Committee in Warsaw (Poland). For the syngeneic CT26 model, 7–8-week old BALB/c females (n = 9–18 per group, BALB/cAnNCrl, Charles River Laboratories) were injected subcutaneously in the right flank with 5 × 10^5 CT26 cells. […] Anti-PD-L1 antibody (InVivoPlus anti-mouse PD-L1, clone 10F.9G2, BioXCell, lot 615416D1) was injected intraperitoneally at 2.5 mg/kg on days: 8, 10, 12, 14 and 16 post tumour cells inoculation. Control groups received vehicle (saline) or isotype antibody (InVivoPlus rat IgG2b, anti-KLH, BioXCell, lot 629816D1). For the xenograft K562 model, 7–8 week-old athymic nude mice (n = 8–11 per group, Crl:NU(NCr)-Foxn1^nu, Charles River Laboratories) or NK cell-deficient Fox Chase SCID Beige mice (n = 10–12 per group, CB17.Cg-Prkdc^scidLyst^bg-J/Crl, Charles River Laboratories) were injected subcutaneously in the right flank with 1 × 10^7 K562 cells. […] Tumour volume measured by a digital calliper (width × length × depth × π/6) was recorded three times per week. Animals were euthanized when tumours were necrotized or volume exceeded 2000 mm^3. Renca in vivo efficacy study was performed at Crown Biosciences Inc. (Taicang, China). All experimental procedures on animals were approved by the Institutional Animal Care and Use Committee (IACUC) and conducted in accordance with the regulations of the Association for Assessment and Accreditation of Laboratory Animal Care (AAALAC). For the syngeneic Renca model, 6–7 week-old BALB/c females (n = 12 per group, Shanghai Lingchang Biotechnology, Shanghai, China) were injected subcutaneously in the right flank with 1 × 10^6 Renca cells. Tumour volumes (length × width^2 × 0.5) were measured twice per week. OATD-02 was dosed twice per day at 75 mg/kg by oral gavage. A dosing holiday was given to individuals with bodyweight loss exceeding 15% of the initial body weight and the treatment was resumed when the bodyweight loss recovered to less than 10%. Due to the cachexic nature of the Renca model, all animals were supplemented with DietGel to help maintain their body weight.
Dissected tumours were dissociated to obtain single-cell suspensions for antibody staining and immune cell assessment. Prior to the antibody staining, dead cells were labelled with the Fixable Viability Due eFluor™ 780 (eBiosciences, San Diego, CA, USA). The following anti-mouse antibodies were used for flow cytometry: anti-CD45-FITC (clone 30-F11, Biolegend, San Diego, CA, USA), anti-CD3-BUV395 (clone 145-2C11, BD), anti-CD4-BV421 (clone GK1.5, Biolegend), anti-CD8-PE-eFluor610 (clone 53-6.7, eBiosciences), anti-Foxp3-PE (clone FJK-16S, eBiosciences), anti-CD11b-PE-Cy7 (clone M1/70, Biolegend), anti-F4/80-BV510 (clone BM8, Biolegend), and anti-Gr1-APC (clone RB6-8C5, Biolegend).
The concentrations of OATD-02, the reference ARGi or L-arginine were determined in plasma samples or tumour homogenates using liquid chromatography coupled with tandem mass spectrometry (LC-MS/MS). Sample preparation was based on protein precipitation using acetonitrile. The resulting supernatants were analysed using hydrophilic interaction liquid chromatography (HILIC) with subsequent MS detection based on optimised MRM transitions. Matrix-matched calibration and quality control samples were prepared for quantification of OATD-02 and the reference ARGi. Due to the endogenous character of L-arginine, a surrogate matrix was used for its detection.
All statistical analyses were performed using GraphPad Prism (ver. 9, GraphPad Software, Inc., San Diego, CA, USA). Data sets with normal distribution were described as means with SEM (standard error of the mean). Otherwise, the median value was shown and the U Mann–Whitney or the Kruskal–Wallis tests were applied for intergroup comparisons. Differences at p-value less than 0.05 were considered statistically significant. […]

In test [2] the target is T1, recombinant human ARG2 (Homo sapiens, UniProt P78540).
T1 construct: made in house; host or cells: E. coli
T1 sequence (P78540 23-354): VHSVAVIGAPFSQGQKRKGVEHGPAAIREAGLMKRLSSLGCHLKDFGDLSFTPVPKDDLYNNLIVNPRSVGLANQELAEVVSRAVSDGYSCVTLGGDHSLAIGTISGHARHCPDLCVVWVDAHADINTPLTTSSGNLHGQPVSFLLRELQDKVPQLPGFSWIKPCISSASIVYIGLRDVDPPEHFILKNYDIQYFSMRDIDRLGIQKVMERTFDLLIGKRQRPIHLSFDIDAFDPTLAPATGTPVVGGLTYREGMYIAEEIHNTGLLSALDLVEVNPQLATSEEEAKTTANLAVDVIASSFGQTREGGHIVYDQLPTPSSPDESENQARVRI
Put plainly: Recombinant arginase inhibition assay (colorimetric urea detection), ARG2. The test is classed as biochemical. As to conditions: recombinant human ARG2, 20 mM L-arginine, 37 °C, 1 h, pH 7.4. The procedure: Recombinant enzymes (ARG1 or ARG2) were produced at Molecure SA—biosynthesized in E. coli expression system, purified by fast protein liquid chromatography, and stored at −80 °C in the storage buffer (20 mM Tris pH 8.0, 100 mM NaCl, 10 mM DDT, 10% glycerol). The enzymatic reaction was carried out at 37 °C for 1 h in the assay buffer (100 mM sodium phosphate buffer, 130 mM NaCl, pH 7.4) with the addition of 1 mg/mL BSA in the presence of 200 µM MnCl2 (enzyme cofactor), 10 mM (for ARG1) or 20 mM (for ARG2) of L-arginine hydrochloride (enzyme substrate), and serial dilutions of the test compounds. The inhibition of the arginase activity was determined by colorimetric detection of produced urea, as previously described with minor changes. Briefly, 150 µL of freshly prepared developing reagent (2 mM o-phthaldialdehyde (OPA), 2 mM N-(1-naphthyl)ethylenediamine dihydrochloride (NED), 50 mM boric acid, 1 M sulfuric acid, 0.03% Brij-35) was added to each well, incubated for 20 min at RT, then the absorbance at 515 nm was measured. Normalized values were fitted to a four-parameter equation using GraphPad Prism and IC50 values were determined. […]

`CN(C)C[C@@H]1CC[C@@H](CCB(O)O)C[C@]1(N)C(=O)O` [OATD-02]: the “TGI, syngeneic Renca model” value in test [1] (75 mg/kg PO BID from day 1, day 22 post-inoculation, not statistically significant) is 31%. Besides, the “levels of Tregs in the tumour microenvironment” value in test [1] (Renca tumours, flow cytometry, Foxp3+ within CD4+ T cells, p = 0.0196) is listed as “decreased levels”. In addition, the “levels of MDSCs in the tumour microenvironment” value in test [1] (Renca tumours, flow cytometry, p = 0.0173) is “decreased levels”. In test [1] (Renca tumours, flow cytometry, p = 0.0281), the “CD8+/Treg cell ratio” value is reported as “beneficial increase”. Further, the “levels of neutrophils in the tumour microenvironment” value in test [1] (Renca tumours, flow cytometry, p = 0.0284) was “decreased levels”. Further, the “fold increase in plasma L-arginine” value in test [1] (Renca-bearing mice, 75 mg/kg PO BID, 16 h upon last dose) came to 6.6 fold. Besides, the 50% inhibitory concentration (IC50) in test [2] came out at 34 nM.
With `C[C@H](N)C(=O)N1C[C@H](CCCB(O)O)[C@](N)(C(=O)O)C1` [ref. ARGi, numidargistat, reference compound], the 50% inhibitory concentration (IC50) in test [2] came out at 335 nM.
